Entries after “also recorded” stand apart in the source; their conditions may differ. Where a SMILES comes first, the peptide text is derived from it.
How the values were obtained:
Format in all cases: cell-based
collagen type I promoter = collagen type I promoter (COL 1a2 promoter-luciferase) assay in TGF-beta stimulated mesangial cells
Description: In a second assay, the ability of the peptide to block the stimulation of collagen type I promoter by TGF-beta was tested. Collagen type I upregulation is a characteristic feature of fibrosis and is often used as an end point determination. TGF-beta is a well-established pro-fibrotic factor or cytokine that mesangial cells and other cells in the fibrotic response respond to by upregulating collagen and other matrix molecule production and accumulation. Several new anti-fibrotic therapies are under development that target the activity of TGF-beta. For the assays used in connection with the present invention, collagen promoter activity was measured as a rapid and early indicator of collagen-related fibrotic activity. The cells in culture were either unstimulated or stimulated by TGF-beta, both in the presence and absence of the selected peptides. If the peptides have inhibitory activity, the promoter activity under TGF-beta stimulation would be reduced to some value approaching the control, non-TGF-beta treated cells. The collagen promoter assay is based on the transfection of mesangial cells with a COL 1a2 promoter linked to luciferase. Therefore, when the promoter is stimulated it can be measured as luciferase units (Riser et al, CCN3 is a negative regulator of CCN2 and a novel endogenous inhibitor of the fibrotic pathway in an in vitro model of renal disease, American J Pathology, 174, 5, 2009). The level of collagen promoter activation (in arbitrary units), is based on a transfection efficiency control (CMV promoter activation).

[1] = tested on: human chronic myelogenous leukemia cells (K562); details: 10 nM
Description: Another potential use of the methods described in the invention is for the treatment of cancers. […] CCNp generated to mimic the effects of the function of CCN3 to prevent, reduce, stop or reverse progression of fibrosis/scarring may also serve to limit cancer growth. […] In untreated cells (Control) and those pre-incubated with quantities (approximately 10 nM) of a commercial recombinant CCN3 (rCCN3c), or full length CCN3 made in our laboratory, represented by several preparations rCCN3 8 (SEQ ID NO: 44), rCCN3 9 (SEQ ID NO: 44), rCCN3 10 (SEQ ID NO: 44), rCCN3 11 (SEQ ID NO: 44), or the peptides CCN p37 or CCN p38 were allowed to grow, then proliferation measured by the CellTiter-Glo® Luminescent Cell Viability Assay Control untreated cells, or cells (McCallum, L et al, CCN3: a key growth regulator in Chronic Myeloid Leukaemia, J Cell Commun Signal. 2009 June; 3(2): 115-124.). The latter is a homogeneous method of determining the number of viable cells in culture based on quantitation of the ATP present, an indicator of metabolically active cells. […] In comparison, CCNp37 produces 15-20% inhibition and CCNp38 approximately 40% inhibition of cell growth. Thus the activity was greater than the full-length CCN3.

human skin fibroblasts = experiment: human skin fibroblast proliferation
Text: (§1) To test this we used a cell culture model of skin healing/scarring, which employed the use of primary human skin fibroblasts derived from foreskins collected post circumcision. These have been used extensively in the past to grown in culture and treated with agents that are known to drive wound healing and or scarring. We were also interested in a rare form of skin fibrosis/scarring that can lead to systemic disease and death known as nephrogenic systemic fibrosis (NSF). NSF is a complication of NMR diagnostics in renal impaired patients, where gadolinium (GAD), a heavy metal, is used as a contrast agent, but in some cases appears to deposit in skin. Although the mechanism for development of skin fibrosis and subsequent systemic disease is not yet completely understood, we have developed a model that has allowed elucidation of the probable pathway to skin fibrosis (Bhagavathula, N., M. K. Dame, M. DaSilva, W. Jenkins, M. N. Aslam, P. Perone and J. Varani (2010)). “Fibroblast response to gadolinium: role for platelet-derived growth factor receptor.” Invest Radiol 45(12): 769-777). This disease is characterized as a hyperproliferative disease, and in our model it was shown that PDGF produced by resident skin fibroblasts are stimulated by GAD to increase their production of PDGF which acts to induce proliferation and the increased production of MMPs, regulators of ECM breakdown and thus turnover, including the major MMP, MMP-1. At the same time tissue inhibitors of MMPs (TIMPs) are also affected by exposure to GAD. […] It appears that local fibroblasts then respond to this increased TGF-beta by increasing their production of ECM, including predominantly collagen type 1.
(§2) We examined the role of CCN3 and CCNp in fibroproliferative/fibrotic responses in human dermal fibroblasts exposed to Omniscan, one of the gadolinium-based contrast agents associated with development of nephrogenic systemic fibrosis. These studies were carried out as we have previously described (Riser, B. L., N. Bhagavathula, P. Perone, K. Garchow, Y. Xu, G. J. Fisher, F. Najmabadi, D. Attili and J. Varani (2012)). “Gadolinium-induced fibrosis is counter-regulated by CCN3 in human dermal fibroblasts: a model for potential treatment of nephrogenic systemic fibrosis.” J Cell Commun Signal 6(2): 97-105.). In our studies, human dermal fibroblasts were exposed to Omniscan; or to PDGF and TGF-β1 as controls. Cellular proliferation was assessed along with MMP-1 (by ELISA and gelatin zymography), TIMP-1 (by ELISA) and COL1 (by ELISA) in the absence and presence of CCN3 and CCNp. CCN3 and CCNp38 was added to cells at 10 nM concentration and at the same time as PDGF. In parallel, CCN3 production was assessed in control and Omniscan-treated cells. In most case the results shown (each bar) are the mean of 3-5 separate experiments, using fibroblasts from different donors. CCN3 was produced in our laboratory from the human embryonic kidney cell line (HEK-293) transfected with the complete human CCN3 gene, and producing an approximate 55 kDa, full-length CCN3 product. A second source of CCN3 was obtained from Pepro Tech Corporation (Rocky Hill, NJ) and is produced in a prokaryote cell line.
(§3) Next we created and tested for efficacy, additional CCNp including those with the cysteines intact (native sequence) from CCNp37 and CCNp38 and those that were modified by either shortening the peptide by 1 or 2 amino acids or lengthening by one amino acid. These agents were added to human skin fibroblasts in increasing concentrations from 1 nM to 100 nM and compared to the equal concentration of CCN3 (SEQ. ID. NO: 67). They were added just prior to the addition of either TGF-beta or PDGF, depending on the experiment.

MMP-1 = MMP-1 production by human skin fibroblasts; details: for reduction in PDGF stimulated MMP-1 production: 100 nM, FIG. 27
Text: as §1, §2, §3

TIMP-1 = TIMP-1 production by human skin fibroblasts
Text: as §1, §2
Next we created and tested for efficacy, additional CCNp including those with the cysteines intact (native sequence) from CCNp37 and CCNp38 and those that were modified by either shortening the peptide by 1 or 2 amino acids or lengthening by one amino acid. […]

pro-collagen type 1 = pro-collagen type 1 production by human skin fibroblasts
Text: To test this we used a cell culture model of skin healing/scarring, which employed the use of primary human skin fibroblasts derived from foreskins collected post circumcision. These have been used extensively in the past to grown in culture and treated with agents that are known to drive wound healing and or scarring. We were also interested in a rare form of skin fibrosis/scarring that can lead to systemic disease and death known as nephrogenic systemic fibrosis (NSF). NSF is a complication of NMR diagnostics in renal impaired patients, where gadolinium (GAD), a heavy metal, is used as a contrast agent, but in some cases appears to deposit in skin. Although the mechanism for development of skin fibrosis and subsequent systemic disease is not yet completely understood, we have developed a model that has allowed elucidation of the probable pathway to skin fibrosis (Bhagavathula, N., M. K. Dame, M. DaSilva, W. Jenkins, M. N. Aslam, P. Perone and J. Varani (2010)). “Fibroblast response to gadolinium: role for platelet-derived growth factor receptor.” Invest Radiol 45(12): 769-777). This disease is characterized as a hyperproliferative disease, and in our model it was shown that PDGF produced by resident skin fibroblasts are stimulated by GAD to increase their production of PDGF which acts to induce proliferation and the increased production of MMPs, regulators of ECM breakdown and thus turnover, including the major MMP, MMP-1. At the same time tissue inhibitors of MMPs (TIMPs) are also affected by exposure to GAD. […]
We examined the role of CCN3 and CCNp in fibroproliferative/fibrotic responses in human dermal fibroblasts exposed to Omniscan, one of the gadolinium-based contrast agents associated with development of nephrogenic systemic fibrosis. […] Cellular proliferation was assessed along with MMP-1 (by ELISA and gelatin zymography), TIMP-1 (by ELISA) and COL1 (by ELISA) in the absence and presence of CCN3 and CCNp. […] In parallel, CCN3 production was assessed in control and Omniscan-treated cells. […]

`CC[C@H](C)[C@H](NC(=O)CNC(=O)[C@@H](NC(=O)[C@H](CCC(N)=O)NC(=O)[C@H](CC(N)=O)NC(=O)[C@H](CC(N)=O)NC(=O)[C@@H]1CCCN1C(=O)[C@H](CC(=O)O)NC(=O)[C@H](C)NC(=O)[C@H](CO)NC(=O)[C@H](CCCNC(=N)N)NC(=O)[C@H](CC(=O)O)NC(=O)[C@@H](N)CO)[C@@H](C)O)C(=O)N[C@@H](CO)C(=O)O` [CCNp38] (H-SDRSADPNNQTGIS-OH) was tested, and the “inhibition of TGF-β-stimulated collagen promoter activity” value (collagen type I promoter; 500 ng/mL) was “able to inhibit collagen promoter activity”, the “inhibition of TGF-β-stimulated collagen promoter activity” value (collagen type I promoter; peptide screen, FIG. 8) was “reduce collagen promoter stimulation by TGF-β” and the “reduction in growth and/or viability (inhibition of cell growth)” value [1] was “approximately 40%”.

In the case of “CCNp38-3: Human analog CCNp38 with native cysteines replaced with serines, SEQ. ID. No. 56 (SDRSADPSNQTGIS)”, the “block of PDGF-stimulated fibroblast proliferation” value (human skin fibroblasts; PDGF, 10 nM, FIG. 15) is reported as “equally well; also recorded: this stimulation is blocked”, the “effect on baseline cell growth” value (human skin fibroblasts; TGF-beta (does not stimulate proliferation), FIG. 16) is reported as “neither CCN3 (SEQ. ID. No. 67) nor CCNp38-3 (Seq. ID. No. 56) has an effect on baseline cell growth” and the “reduction in PDGF stimulated MMP-1 production” value (MMP-1) is reported as “about 60%”. The “block of PDGF-induced increase in MMP-1 activity” value (MMP-1; PDGF, 10 nM, FIG. 17) was “works better than CCN3 protein; also recorded: works as well or better than CCN3 protein”, the “effect on MMP-1 with TGF-beta” value (MMP-1; TGF-beta (no stimulating effect), FIG. 18) was “no effect” and the “block of PDGF-induced increase in TIMP-1 production” value (TIMP-1; PDGF, 10 nM, FIG. 19) was “neither CCNp38-3 (Seq. ID. No. 56) nor CCN3 (SEQ. ID. No. 67) is able to block or reduce the increase in TIMP-1 production”. For the same molecule, the “effect on TIMP-1 production with TGF-beta” value (TIMP-1; TGF-beta (fails to stimulate), FIG. 20) was “neither CCNp38-3 nor CCN3 have an effect; also recorded: neither CCNp38-3 or CCN3 have an effect”, the “reduction of TGF-beta-stimulated pro-collagen type 1 production” value (pro-collagen type 1; 1-100 nM, FIGS. 31-33) was “as effective as CCN3” and the “block of TGF-beta-induced increase in pro-collagen production” value (pro-collagen type 1; TGF-beta, 10 nM, FIG. 21) was “completely block the increase”.

In the case of “CCNp38-4: Human native CCNp38, SEQ. ID. No. 50 (CDRSADPSNQTGIC; listed as Homo sapiens)”, the “inhibition of PDGF-stimulated proliferation, comparison of modifications” value (human skin fibroblasts; 1 nM to 100 nM, FIGS. 22-24) is reported as “inhibited proliferation stimulated by PDGF, but was not as effective as the substituted form” and the “reduction in PDGF stimulated MMP-1 production” value (MMP-1) is reported as “about 60%”.

With `CC(C)[C@H](NC(=O)CNC(=O)[C@H](CO)NC(=O)[C@@H](N)Cc1ccccc1)C(=O)N[C@@H](CO)C(=O)N[C@@H](CO)C(=O)N[C@@H](CC(=O)O)C(=O)NCC(=O)N[C@@H](CCCNC(=N)N)C(=O)N[C@@H](CO)C(=O)N[C@@H](CO)C(=O)N[C@H](C(=O)N1CCC[C@H]1C(=O)N[C@@H](Cc1c[nH]cn1)C(=O)O)[C@@H](C)O` [CCNp37] (H-FSGVSSDGRSSTPH-OH) the “inhibition of TGF-β-stimulated collagen promoter activity” value (collagen type I promoter; added 24-hours prior to TGF-β) was “able to produce some activity”, the “inhibition of TGF-β-stimulated collagen promoter activity” value (collagen type I promoter; added 24-hours prior to TGF-β, listed as Peptide 37) was “also present (although to a lower level)” and the “inhibition of TGF-β-stimulated collagen promoter activity” value (collagen type I promoter; added just prior to TGF-β) was “most effective”. For the same molecule, the “inhibition of TGF-β-stimulated collagen promoter activity” value (collagen type I promoter; added just prior to TGF-β, listed as Peptide 37) was “ability to totally block TGF-β-stimulated collagen promoter activity”, the “inhibition of TGF-β-stimulated collagen promoter activity” value (collagen type I promoter; peptide screen, FIG. 8) was “reduce collagen promoter stimulation by TGF-β; also recorded: inhibition of TGF-beta stimulated collagen promoter activity; also recorded: more potent than CCNp38” and the “reduction in growth and/or viability (inhibition of cell growth)” value [1] was 15-20%.

“CCNp37-15: Human or mouse analog with native cysteines replaced with serines and without PH on C-terminal end, SEQ. ID. No. 55 (FSGVSSDGRSST)” was tested, and the “block of PDGF stimulated MMP-1 production, comparison of modifications” value (MMP-1; 1 nM to 100 nM, FIGS. 25-27) was “less effective”.
